The text below walks through data of patent US12263172B2, “Toll-like receptor agonists for use in the treatment of hepatitis b” (priority 2019, dated 2025).

Structures are written as SMILES.

This series deals with CYP1A2, 2B6, and 3A4. As to the kind of experiment: in vitro CYP induction. The series is classed as in vitro ADME. Conditions: up to 10 μM.

Regarding `CCCCOc1nc(N)c2[nH]cc(Cc3ccc(CN4CCCC4)cc3)c2n1` [Compound 4], the “in vitro induction of CYP1A2, 2B6, and 3A4” value is “not an in vitro inducer”.
